In ChEMBL document CHEMBL1144513, “Synthesis and SAR study of novel 7-(pyridinium-3-yl)-carbonyl imidazo[5,1-b]thiazol-2-yl carbapenems” (2007):
Converted amounts (≈) assume the structure as drawn.

Tests used:
Format in all cases: functional
Klebsiella pneumoniae = test: Antibacterial activity against Klebsiella pneumoniae GN69 by agar dilution method
Staphylococcus aureus [1] = test: Antibacterial activity against carbapenem and methicillin-resistant Staphylococcus aureus M126HR by agar dilution method
Moraxella catarrhalis = test: Antibacterial activity against Moraxella catarrhalis W-0500 by agar dilution method
Staphylococcus aureus [2] = test: Antibacterial activity against Staphylococcus aureus 209P JC1 by agar dilution method
Streptococcus pneumoniae = test: Antibacterial activity against penicillin-resistant Streptococcus pneumoniae KK133 by agar dilution method
Staphylococcus aureus [3] = test: Antibacterial activity against methicillin-resistant Staphylococcus aureus M126 by agar dilution method
Escherichia coli = test: Antibacterial activity against Escherichia coli NIHJ JC2 by agar dilution method
Haemophilus influenzae = test: Antibacterial activity against beta-lactamase-negative ampicillin-resistant Haemophilus influenzae 870 by agar dilution method

SMILES: C[C@@H](O)[C@H]1C(=O)N2C(C(=O)[O-])=C(c3cn4c(C5CC5)nc(C(=O)c5ccc[n+](CC(N)=O)c5)c4s3)[C@H](C)[C@H]12
- MIC (Klebsiella pneumoniae): 4 µg/mL (≈ 7.47 µM)
- MIC (Staphylococcus aureus [1]): 2 µg/mL (≈ 3.73 µM)
- MIC (Moraxella catarrhalis): 0.016 µg/mL (≈ 0.0299 µM)
- MIC (Staphylococcus aureus [2]): 0.016 µg/mL (≈ 0.0299 µM)
- MIC (Streptococcus pneumoniae): 0.031 µg/mL (≈ 0.0579 µM)
- MIC (Staphylococcus aureus [3]): 0.5 µg/mL (≈ 0.934 µM)
- MIC (Escherichia coli): 4 µg/mL (≈ 7.47 µM)
- MIC (Haemophilus influenzae): 0.031 µg/mL (≈ 0.0579 µM)

SMILES: C[C@@H](O)[C@H]1C(=O)N2C(C(=O)[O-])=C(c3cn4cnc(C(=O)c5ccc[n+](CC(N)=O)c5)c4s3)[C@H](C)[C@H]12
- MIC (Klebsiella pneumoniae): 0.063 µg/mL (≈ 0.127 µM)
- MIC (Staphylococcus aureus [1]): 2 µg/mL (≈ 4.04 µM)
- MIC (Moraxella catarrhalis): 0.016 µg/mL (≈ 0.0323 µM)
- MIC (Staphylococcus aureus [2]): ≤ 0.008 µg/mL
- MIC (Streptococcus pneumoniae): 0.031 µg/mL (≈ 0.0626 µM)
- MIC (Staphylococcus aureus [3]): 0.5 µg/mL (≈ 1.01 µM)
- MIC (Escherichia coli): 0.031 µg/mL (≈ 0.0626 µM)
- MIC (Haemophilus influenzae): 0.063 µg/mL (≈ 0.127 µM)

SMILES: C[C@@H](O)[C@H]1C(=O)N2C(C(=O)O)=C(c3cn4cnc(C(=O)C5CCNCC5)c4s3)[C@H](C)[C@H]12
- MIC (Klebsiella pneumoniae): 0.125 µg/mL (≈ 0.281 µM)
- MIC (Staphylococcus aureus [1]): 4 µg/mL (≈ 9 µM)
- MIC (Moraxella catarrhalis): 0.031 µg/mL (≈ 0.0697 µM)
- MIC (Staphylococcus aureus [2]): 0.008 µg/mL (≈ 0.018 µM)
- MIC (Streptococcus pneumoniae): 0.063 µg/mL (≈ 0.142 µM)
- MIC (Staphylococcus aureus [3]): 1 µg/mL (≈ 2.25 µM)
- MIC (Escherichia coli): 0.063 µg/mL (≈ 0.142 µM)
- MIC (Haemophilus influenzae): 0.063 µg/mL (≈ 0.142 µM)

SMILES: C[C@@H](O)[C@H]1C(=O)N2C(C(=O)[O-])=C(c3cn4cnc(C(=O)c5ccc[n+](CCNS(N)(=O)=O)c5)c4s3)[C@H](C)[C@H]12
- MIC (Klebsiella pneumoniae): 0.063 µg/mL (≈ 0.112 µM)
- MIC (Staphylococcus aureus [1]): 2 µg/mL (≈ 3.57 µM)
- MIC (Moraxella catarrhalis): 0.016 µg/mL (≈ 0.0285 µM)
- MIC (Staphylococcus aureus [2]): ≤ 0.008 µg/mL
- MIC (Streptococcus pneumoniae): 0.031 µg/mL (≈ 0.0553 µM)
- MIC (Staphylococcus aureus [3]): 1 µg/mL (≈ 1.78 µM)
- MIC (Escherichia coli): 0.031 µg/mL (≈ 0.0553 µM)
- MIC (Haemophilus influenzae): 0.063 µg/mL (≈ 0.112 µM)

SMILES: C[C@@H](O)[C@H]1C(=O)N2C(C(=O)O)=C(c3cn4cnc(C(=O)c5cncs5)c4s3)[C@H](C)[C@H]12
- MIC (Klebsiella pneumoniae): 2 µg/mL (≈ 4.5 µM)
- MIC (Staphylococcus aureus [1]): 4 µg/mL (≈ 9 µM)
- MIC (Moraxella catarrhalis): 0.016 µg/mL (≈ 0.036 µM)
- MIC (Staphylococcus aureus [2]): ≤ 0.008 µg/mL
- MIC (Streptococcus pneumoniae): 0.031 µg/mL (≈ 0.0697 µM)
- MIC (Staphylococcus aureus [3]): 0.031 µg/mL (≈ 0.0697 µM)
- MIC (Escherichia coli): 1 µg/mL (≈ 2.25 µM)
- MIC (Haemophilus influenzae): 0.063 µg/mL (≈ 0.142 µM)

SMILES: C[C@@H](O)[C@H]1C(=O)N2C(C(=O)[O-])=C(c3cn4cnc(C(=O)c5ccc[n+](CC(=O)C(F)(F)F)c5)c4s3)[C@H](C)[C@H]12
- MIC (Klebsiella pneumoniae): 0.25 µg/mL (≈ 0.456 µM)
- MIC (Staphylococcus aureus [1]): 4 µg/mL (≈ 7.29 µM)
- MIC (Moraxella catarrhalis): 0.031 µg/mL (≈ 0.0565 µM)
- MIC (Staphylococcus aureus [2]): 0.016 µg/mL (≈ 0.0292 µM)
- MIC (Streptococcus pneumoniae): 0.063 µg/mL (≈ 0.115 µM)
- MIC (Staphylococcus aureus [3]): 1 µg/mL (≈ 1.82 µM)
- MIC (Escherichia coli): 0.125 µg/mL (≈ 0.228 µM)
- MIC (Haemophilus influenzae): 0.063 µg/mL (≈ 0.115 µM)

SMILES: C[C@@H](O)[C@H]1C(=O)N2C(C(=O)O)=C(c3cn4cnc(C(=O)c5ccncc5)c4s3)[C@H](C)[C@H]12
- MIC (Klebsiella pneumoniae): 2 µg/mL (≈ 4.56 µM)
- MIC (Staphylococcus aureus [1]): 4 µg/mL (≈ 9.12 µM)
- MIC (Moraxella catarrhalis): 0.031 µg/mL (≈ 0.0707 µM)
- MIC (Staphylococcus aureus [2]): ≤ 0.008 µg/mL
- MIC (Streptococcus pneumoniae): 0.031 µg/mL (≈ 0.0707 µM)
- MIC (Staphylococcus aureus [3]): 0.063 µg/mL (≈ 0.144 µM)
- MIC (Escherichia coli): 2 µg/mL (≈ 4.56 µM)
- MIC (Haemophilus influenzae): 0.031 µg/mL (≈ 0.0707 µM)

SMILES: C[C@@H](O)[C@H]1C(=O)N2C(C(=O)[O-])=C(c3cn4cnc(C(=O)c5ccc[n+](Cc6ccccc6)c5)c4s3)[C@H](C)[C@H]12
- MIC (Klebsiella pneumoniae): 1 µg/mL (≈ 1.89 µM)
- MIC (Staphylococcus aureus [1]): 4 µg/mL (≈ 7.57 µM)
- MIC (Moraxella catarrhalis): 0.063 µg/mL (≈ 0.119 µM)
- MIC (Staphylococcus aureus [2]): ≤ 0.008 µg/mL
- MIC (Streptococcus pneumoniae): 0.016 µg/mL (≈ 0.0303 µM)
- MIC (Staphylococcus aureus [3]): 0.5 µg/mL (≈ 0.946 µM)
- MIC (Escherichia coli): 0.5 µg/mL (≈ 0.946 µM)
- MIC (Haemophilus influenzae): 0.063 µg/mL (≈ 0.119 µM)

SMILES: CSc1nc(C(=O)c2ccc[n+](CC(N)=O)c2)c2sc(C3=C(C(=O)[O-])N4C(=O)[C@H]([C@@H](C)O)[C@H]4[C@H]3C)cn12
- MIC (Klebsiella pneumoniae): 4 µg/mL (≈ 7.39 µM)
- MIC (Staphylococcus aureus [1]): 1 µg/mL (≈ 1.85 µM)
- MIC (Moraxella catarrhalis): 0.016 µg/mL (≈ 0.0295 µM)
- MIC (Staphylococcus aureus [2]): 0.008 µg/mL (≈ 0.0148 µM)
- MIC (Streptococcus pneumoniae): 0.016 µg/mL (≈ 0.0295 µM)
- MIC (Staphylococcus aureus [3]): 0.5 µg/mL (≈ 0.923 µM)
- MIC (Escherichia coli): 4 µg/mL (≈ 7.39 µM)
- MIC (Haemophilus influenzae): 0.031 µg/mL (≈ 0.0572 µM)

SMILES: CCc1nc(C(=O)c2ccc[n+](CC(N)=O)c2)c2sc(C3=C(C(=O)[O-])N4C(=O)[C@H]([C@@H](C)O)[C@H]4[C@H]3C)cn12
- MIC (Klebsiella pneumoniae): 4 µg/mL (≈ 7.64 µM)
- MIC (Staphylococcus aureus [1]): 4 µg/mL (≈ 7.64 µM)
- MIC (Moraxella catarrhalis): 0.031 µg/mL (≈ 0.0592 µM)
- MIC (Staphylococcus aureus [2]): 0.016 µg/mL (≈ 0.0306 µM)
- MIC (Streptococcus pneumoniae): 0.031 µg/mL (≈ 0.0592 µM)
- MIC (Staphylococcus aureus [3]): 1 µg/mL (≈ 1.91 µM)
- MIC (Escherichia coli): 2 µg/mL (≈ 3.82 µM)
- MIC (Haemophilus influenzae): 0.063 µg/mL (≈ 0.12 µM)

SMILES: C[C@@H](O)[C@H]1C(=O)N2C(C(=O)O)=C(c3cn4cnc(C(=O)[C@@H]5CCCN5)c4s3)[C@H](C)[C@H]12
- MIC (Klebsiella pneumoniae): 0.125 µg/mL (≈ 0.29 µM)
- MIC (Staphylococcus aureus [1]): 4 µg/mL (≈ 9.29 µM)
- MIC (Moraxella catarrhalis): 0.031 µg/mL (≈ 0.072 µM)
- MIC (Staphylococcus aureus [2]): ≤ 0.008 µg/mL
- MIC (Streptococcus pneumoniae): 0.063 µg/mL (≈ 0.146 µM)
- MIC (Staphylococcus aureus [3]): 1 µg/mL (≈ 2.32 µM)
- MIC (Escherichia coli): 0.125 µg/mL (≈ 0.29 µM)
- MIC (Haemophilus influenzae): 0.125 µg/mL (≈ 0.29 µM)

SMILES: Cc1nc(C(=O)c2ccc[n+](CC(N)=O)c2)c2sc(C3=C(C(=O)[O-])N4C(=O)[C@H]([C@@H](C)O)[C@H]4[C@H]3C)cn12
- MIC (Klebsiella pneumoniae): 0.5 µg/mL (≈ 0.981 µM)
- MIC (Staphylococcus aureus [1]): 4 µg/mL (≈ 7.85 µM)
- MIC (Moraxella catarrhalis): 0.008 µg/mL (≈ 0.0157 µM)
- MIC (Staphylococcus aureus [2]): 0.016 µg/mL (≈ 0.0314 µM)
- MIC (Streptococcus pneumoniae): 0.031 µg/mL (≈ 0.0608 µM)
- MIC (Staphylococcus aureus [3]): 1 µg/mL (≈ 1.96 µM)
- MIC (Escherichia coli): 0.25 µg/mL (≈ 0.491 µM)
- MIC (Haemophilus influenzae): 0.063 µg/mL (≈ 0.124 µM)

SMILES: C[C@@H](O)[C@H]1C(=O)N2C(C(=O)O)=C(c3cn4cnc(C(=O)C5CCCCN5)c4s3)[C@H](C)[C@H]12 (some centres undefined)
- MIC (Klebsiella pneumoniae): 0.25 µg/mL (≈ 0.562 µM)
- MIC (Staphylococcus aureus [1]): 4 µg/mL (≈ 9 µM)
- MIC (Moraxella catarrhalis): 0.063 µg/mL (≈ 0.142 µM)
- MIC (Staphylococcus aureus [2]): 0.016 µg/mL (≈ 0.036 µM)
- MIC (Streptococcus pneumoniae): 0.125 µg/mL (≈ 0.281 µM)
- MIC (Staphylococcus aureus [3]): 1 µg/mL (≈ 2.25 µM)
- MIC (Escherichia coli): 0.125 µg/mL (≈ 0.281 µM)
- MIC (Haemophilus influenzae): 0.25 µg/mL (≈ 0.562 µM)

SMILES: CN[C@H](CC(C)C)C(=O)N[C@H]1C(=O)N[C@@H](CC(N)=O)C(=O)N[C@H]2C(=O)N[C@H]3C(=O)N[C@H](C(=O)N[C@H](C(=O)O)c4cc(O)cc(O)c4-c4cc3ccc4O)[C@H](O)c3ccc(c(Cl)c3)Oc3cc2cc(c3O[C@@H]2O[C@H](CO)[C@@H](O)[C@H](O)[C@H]2O[C@H]2C[C@](C)(N)[C@H](O)[C@H](C)O2)Oc2ccc(cc2Cl)[C@H]1O [VANCOMYCIN]
- MIC (Klebsiella pneumoniae): > 128 µg/mL
- MIC (Moraxella catarrhalis): 64 µg/mL (≈ 44.2 µM)
- MIC (Streptococcus pneumoniae): 0.5 µg/mL (≈ 0.345 µM)
- MIC (Escherichia coli): > 128 µg/mL
- MIC (Haemophilus influenzae): > 128 µg/mL
